Measured values as given in patent EP0844825B1, “INSECTICIDAL N-(SUBSTITUTED ARYLMETHYL)-4- BIS(SUBSTITUTED PHENYL OR PYRIDYL)METHYL]PIPERIDINES” (FMC CORPORATION, priority 1995, dated 1996).
Like-named read-outs stand apart in the source and are kept apart here.

Legend:
[1] = test system: tobacco budworm (Heliothis virescens [Fabricius]); assay: Diet test: test chemical incorporated into artificial diet of tobacco budworm larvae, 5-day exposure; type: in vivo; details: for IC50 / LC50 / mortality at 100 µM / pest or weed control at 100 µM: Heliothis virescens, 120 h; for LC50: read-out: pLC50 (converted); for mortality at 100 µM / pest or weed control at 100 µM: feed or water; for mortality at 100 µM: read-out: Percent Mortality; for pest or weed control at 100 µM / Percent Growth Inhibition: rate of application 4 (negative log of molar concentration in the diet), second instar larvae, 25°C; for pest or weed control at 100 µM: read-out: Percent Growth Inhibition
Experimental: Candidate insecticides were incorporated into an artificial diet for evaluation of insecticidal activity against the tobacco budworm (Heliothis virescens [Fabricius]) in the following manner. Stock solutions of test chemical in dimethyl sulfoxide, ranging from […], were prepared for each rate of application. One hundred microliters of each of the stock solutions was manually stirred into 50 mL of a molten (65-70°C) wheat germ-based artificial diet. The 50 mL of molten diet containing the test chemical was poured evenly into twenty wells in the outer two rows on each side of a twenty-five well, five row plastic tray. (Each well in the tray was about 1 cm in depth, with an opening of 3 cm by 4 cm at the lip.) Molten diet containing only dimethyl sulfoxide at the levels used in the test chemical-treated diet was poured into the five wells in the third (center) row of the tray. Each tray therefore contained one test chemical at a single rate of application, together with an untreated control. The rates of application, expressed as the negative log of the molar concentration, and the corresponding concentrations of the stock solution prepared for each rate are shown below:
Single second instar tobacco budworm larvae, selected at a stage of growth at which they uniformly weigh about 5 mg each, were placed in each well. Upon completion of infestation, a sheet of clear plastic was heat-sealed over the top of the tray by use of a common household flat.iron. The trays were held at 25°C at 60% relative humidity for five days in a growth chamber. Lighting was set at 14 hours of light and 10 hours of darkness. After the 5-day exposure period, mortality counts were taken, and the surviving insects were weighed. From the weights of the surviving insects that fed on the treated diet as compared to those insects that fed on the untreated diet, the percent growth inhibition caused by each test chemical was determined. […] Also, where possible, the negative log of the concentration of the test chemical that provided 50% mortality (pLC50) was determined.

[2] = test system: beet armyworm (Spodoptera exigua [Hubner]); assay: Foliar spray test on chick pea plants, beet armyworm, 96 hour exposure; type: in vivo; details: rate of application 100 ppm, dead plus moribund insects, * = average of more than one test
Experimental: (§1) Candidate insecticides with high pl50 values from the diet test were tested for insecticidal activity in foliar evaluations against tobacco budworm, beet armyworm (Spodoptera exigua [Hubner]), and cabbage looper (Trichoplusia ni [Hubner])
(§2) In these tests against tobacco budworm and beet armyworm, nine-day-old chick pea plants (Cicer arietinum) were sprayed at 20 psi to runoff on both upper and lower leaf surfaces with solutions of test chemical to provide application rates as high as 1000 ppm of test chemical. The solvent used to prepare the solutions of test chemical was 10% acetone or methanol (v/v) and 0.1% of the surfactant octylphenoxypolyethoxyethanol in distilled water. Four replicates, each containing one chick pea plant, for each rate of application of test chemical were sprayed. The treated plants were transferred to a hood, where they were kept until the spray had dried.
(§3) The four chick pea plants for each replicate treated with test chemical as described above were removed from their pots by cutting the stems just above the soil line. The excised leaves and stems from the four plants in each replicate were placed in individual 8-ounce paper cups, each containing a moistened filter paper. Five second-instar (6 days old) tobacco budworms or beet armyworms (7-8 days old) were counted into each cup, taking care not to cause injury. An opaque plastic lid was placed on each cup, which was then held in a growth chamber for a 96 hour exposure period at 25°C and 50% relative humidity. At the end of the 96 hour exposure period the cups were opened, and the numbers of dead, moribund, and live insects were counted. Using the insect counts, the efficacy of the test chemical was expressed in percent control. Percent control is derived from the total number of dead insects (TD) plus the total number of moribund insects (TM) as compared to the total number of insects (TI) in the test: % Control =(TD+TM)/(TI)x 100 [formula]
(§4) The condition of the test plants was also observed for phytotoxicity and for reduction of feeding damage as compared to an untreated control.

[3] = test system: cabbage looper (Trichoplusia ni [Hubner]); assay: Foliar spray test on pinto bean plants, cabbage looper, 96 hour exposure; type: in vivo; details: rate of application 100 ppm, dead plus moribund insects, * = average of more than one test
Experimental: as §1, §2, §3, §4
Foliar tests with cabbage looper were conducted in the same manner as described above, the difference being that pinto bean plants (Phaseolus vulgaris) were used in place of chick pea plants.

[4] = test system: tobacco budworm (Heliothis veriscens [Fabricius]); assay: Foliar spray test on chick pea plants, tobacco budworm, 96 hour exposure; type: in vivo, Heliothis virescens; details: rate of application 100 ppm, dead plus moribund insects, * = average of more than one test
Experimental: as §1, §2, §3, §4

[5] = negative log of the concentration that provides 50% growth inhibition, by linear regression, 5 days, * = average of more than one test, read-out: pl50 (converted)
[6] = negative log of the concentration that provides 50% mortality, 5 days, * = average of more than one test
[7] = 5 days, * = average of more than one test
[8] = negative log of the concentration that provides 50% growth inhibition, by linear regression, 5 days, * = average of more than one test

SMILES	IC50 [1, 5]	LC50 [1, 6]	mortality at 100 µM [1]	pest or weed control at 100 µM [1, 7]	pl50 [1, 8]	Percent Control BAW [2]	Percent Control CL [3]	Percent Control TBW [4]	Percent Growth Inhibition [1, 7]	LC50 [1]	IC50 ([1]; read-out: pl50)
Cn1nnc(-c2ccc(CN3CCC(C(O)(c4ccc(OC(F)(F)F)cc4)c4ccc(OC(F)(F)F)cc4)CC3)cc2)n1 [Compound 9, N-[4-(2-methyl-2H-tetrazol-5-yl)phenylmethyl]-4-[bis(4-trifluoromethoxyphenyl)hydroxymethyl]piperidine]	≤ 316 nM	2510 nM	100%	100%	6.6	100%	100%	100%			
Cn1nnc(-c2ccc(CN3CCC(C(O)(c4ccc(C(F)(F)F)cc4)c4ccc(C(F)(F)F)cc4)CC3)cc2)n1 [Compound 31, N-[4-(2-methyl-2H-tetrazol-5-yl)phenylmethyl]-4-[bis(4-trifluoromethylphenyl)hydroxymethyl]piperidine]	≤ 316 nM	2510 nM	100%	100%		100* %	100%	100%			
Cn1nnc(-c2ccc(C[N+]3([O-])CCC(C(O)(c4ccc(C(F)(F)F)cc4)c4ccc(C(F)(F)F)cc4)CC3)cc2)n1 (centres unmarked) [Compound 32, N-[4-(2-methyl-2H-tetrazol-5-yl)phenylmethyl]-4-[bis(4-trifluoromethylphenyl)hydroxymethyl]piperidine N-oxide]	≤ 316 nM	2510 nM	100%	100%		100* %	100%	100%			
CCn1nnc(-c2ccc(CN3CCC(C(O)(c4ccc(C(F)(F)F)cc4)c4ccc(C(F)(F)F)cc4)CC3)cc2)n1 [Compound 33]	≤ 316 nM	794 nM	100%		6.6	100%	95%	100%	99%		
CCn1nnc(-c2ccc(C[N+]3([O-])CCC(C(O)(c4ccc(C(F)(F)F)cc4)c4ccc(C(F)(F)F)cc4)CC3)cc2)n1 (centres unmarked) [Compound 34]	≤ 316 nM	1260 nM	100%			100%	100%	100%	100%		
CCCOc1ccc(CN2CCC(C(O)(c3ccc(C(F)(F)F)cc3)c3ccc(C(F)(F)F)cc3)CC2)cc1 [Compound 102]			100%			100* %	100* %	98* %	100%	3160 nM	< 1000 nM
